# Results published in patent US20240382508A1, “REGENERATIVE AGENT FOR BONE TISSUE AND LUNG TISSUE, AND PHARMACEUTICAL COMPOSITION FOR REGENERATING BONE TISSUE AND LUNG TISSUE” (NIIGATA UNIVERSITY, priority 2021, published 2024).
# Tests used:
# [1] = test system: bone defects in the jawbones; assay: jawbone defect regeneration in cynomolgus monkeys (microCT); assay type: in vivo; conditions: 200 μg at bone defect site, one month
# Experimental: Bone defects with a diameter of 2 cm and a depth of 2 cm were artificially produced in the jawbones of young (2 years old) and aged (10 years old) cynomolgus monkeys by using a round steel bar. Next, 200 μg of each of erythromycin, clarithromycin, and azithromycin were added to the bone defect sites. As controls, a non-administered group and a group administered with 200 μg of REGROTH (registered trademark), which has been approved as a bone regenerative agent, were also prepared. The amount of bone regeneration after one month from the administration of each drug was checked by using microCT. In FIG. 10, the symbol * indicates p<0.01.
# [2] = test system: osteoblasts; assay: bone nodule measurement in osteoblasts (Alizarin red S); assay type: cell-based, mouse; conditions: for formation of bone nodules (FIG. 1): erythromycin 10 μg/mL
# Experimental: Next, from the cranial bones of 3-day-old wild-type mice (N=6, male C57BL/6N mice, manufactured by CLEA Japan, Inc.) and 3-day-old DEL-1-deficient mice (N=6, male C57BL/6N mice (manufactured by CLEA Japan, Inc.), a method for producing the deficient mice was as described in Non Patent Document 1), osteoblasts were isolated by allowing 0.1% by mass of type 1 collagenase and 0.2% by mass of dispase to act at 37° C. for 20 minutes, and the cells were cultured in α-MEM and a bone differentiation medium (containing 50 μg/ml ascorbic acid and 10 mM β-glycerol 2-phosphate). Ethanol (final concentration 0.1% by mass) and erythromycin (10 μg/mL) were added into the medium in which the osteoblasts (1×10^4 cells/mL) derived from the wild-type mice or the DEL-1-deficient mice were cultured. The medium was exchanged every 3 days, and after 15 days, the cells were stained with Alizarin red S, followed by performing of bone nodule measurement.
# (§1) Next, the proportion (%) of bone nodules with respect to the observation region in the above-described osteoblasts was calculated from microscopic images by using image processing software (NIH Image). In addition, RNA was extracted from each of the osteoblasts by using an RNeasy Kit (manufactured by QIAGEN NV), subsequently cDNA was synthesized by using a cDNA synthesis kit (manufactured by Thermo Fisher Scientific, Inc.), and the relative expression levels of RUNX2 mRNA, Sp7 mRNA, and Bglap mRNA, which are important for bone regeneration, were checked by an RT-PCR method (Quantstudio3, Thermo Fisher Scientific, Inc.). Regarding primers, designed primers manufactured by Thermo Fisher Scientific, Inc. were used. The Assay IDs of the primers used are shown below.
# (Bone regeneration-inducing effect 2 by various macrolide antimicrobial agents) From the cranial bones of 3-day-old wild-type mice (N=6, male C57BL/6N mice, manufactured by CLEA Japan, Inc.), osteoblasts were isolated by allowing 0.1% by mass of type 1 collagenase and 0.2% by mass of dispase to act at 37° C. for 20 minutes, and the cells were cultured in α-MEM and a bone differentiation medium (containing 50 μg/ml ascorbic acid and 10 mM β-glycerol 2-phosphate). Ethanol (final concentration 0.1% by mass), or erythromycin, clarithromycin, or azithromycin (10 μg/mL each) was added into the medium in which the osteoblasts (1×10^4 cells/mL) derived from the wild-type mice were cultured. The medium was exchanged every 3 days, and after 15 days, the cells were stained with Alizarin red S, followed by performing of bone nodule measurement. The results are shown in FIG. 11 In FIG. 11, the symbol * indicates p<0.05, and the symbol ** indicates p<0.01. In addition, the control is an ethanol (final concentration 0.1% by mass)-added group.
# [3] = test system: RUNX2 mRNA, Sp7 mRNA, and Bglap mRNA; assay: RT-PCR of bone regeneration genes in osteoblasts; assay type: cell-based, mouse; conditions: osteoblasts derived from wild-type mice
# Experimental: as §1
# [4] = test system: rheumatoid arthritis model mice; assay: rheumatoid arthritis (CAIA) model, microCT of hind limb; assay type: in vivo, mouse
# Experimental: Rheumatoid arthritis (CAIA) (a collagen antibody-administered arthritis-inducing cocktail manufactured by Chondrex, Inc. was used, and the details of the production method were performed according to the protocol provided by Iwai Chemicals Co., Ltd.) was induced by using 6-week-old wild-type mice (N=4, male C57BL/6N mice, manufactured by CLEA Japan, Inc.) and 6-week-old DEL-1-deficient mice (N=4, male C57BL/6N mice (manufactured by CLEA Japan, Inc.), the method for producing the deficient mice was as described in Non Patent Document 1), and erythromycin (10 mg/kg) was intraperitoneally administered once every 3 days from the 1st day after the induction. Regarding the DEL-1-deficient mice, a group in which DEL-1 (10 μg) was administered through the tail vein once every 3 days from the 1st day after the CAIA induction, was also prepared. Nine days after the administration, the hind limb of each mouse was examined by microCT.
# [5] = test system: α-SMA-positive mesenchymal stem cells; assay: immunofluorescence staining of periodontal tissue of experimental periodontitis mice; assay type: in vivo, mouse; conditions: wild-type mice; jawbone slices
# Experimental: Next, jawbones of the wild-type mice to which erythromycin had or had not been administered were extracted and fixed, and then slice preparations were produced. Next, immunofluorescence staining was performed by using an anti-α-SMA antibody (manufactured by Abcam, Ltd.) fluorescently labeled with Alexa Fluor (registered trademark) 488 (manufactured by Thermo Fisher Scientific, Inc.), an anti-CD31/PECAM-1 antibody (manufactured by Thermo Fisher Scientific, Inc.) fluorescently labeled with Alexa Fluor (registered trademark) 647 (manufactured by Thermo Fisher Scientific, Inc.), and an anti-Ki67 antibody (manufactured by R&D Systems, Inc.) fluorescently labeled with Alexa Fluor (registered trademark) 594 (manufactured by Thermo Fisher Scientific, Inc.). Observation images (magnification: 200 times) obtained with a fluorescence microscope (ECLIPSE Ni-E, manufactured by Nikon Corporation) are shown in FIG. 5.
smiles,measurement,setting,value
CC[C@H]1OC(=O)[C@H](C)[C@@H](O[C@H]2C[C@@](C)(OC)[C@@H](O)[C@H](C)O2)[C@H](C)[C@@H](O[C@@H]2O[C@H](C)C[C@H](N(C)C)[C@H]2O)[C@](C)(O)C[C@@H](C)C(=O)[C@H](C)[C@@H](O)[C@]1(C)O [erythromycin],bone regeneration effect (FIG. 10),[1]; aged (10 years old) cynomolgus monkeys,a bone regeneration effect was recognized
same,bone regeneration effect (FIG. 10),[1]; young (2 years old) cynomolgus monkeys,a bone regeneration effect was recognized
same,proportion of bone nodules (FIG. 2),[2]; osteoblasts derived from DEL-1-deficient mice,an increase in the proportion of bone nodules was not recognized
same,formation of bone nodules (FIG. 1),"[2]; osteoblasts derived from DEL-1-deficient mice, 15 days",the formation of bone nodules was not recognized
same,proportion of bone nodules (FIG. 2),[2]; osteoblasts derived from wild-type mice,significant increases in the proportion of bone nodules was recognized
same,formation of bone nodules (FIG. 11),"[2]; osteoblasts derived from wild-type mice, 10 μg/mL each, 15 days",the formation of bone nodules was recognized
same,formation of bone nodules (FIG. 1),"[2]; osteoblasts derived from wild-type mice, 15 days",the formation of bone nodules was recognized
same,expression of Bglap mRNA,[3],increases in the expression
same,expression of RUNX2 mRNA,[3],increases in the expression
same,expression of Sp7 mRNA,[3],increases in the expression
same,bone destruction (FIG. 6),"[4]; DEL-1-deficient mice, erythromycin 10 mg/kg intraperitoneally or DEL-1 10 μg tail vein once every 3 days",bone destruction was not suppressed
same,bone destruction (FIG. 6),"[4]; wild-type mice, erythromycin 10 mg/kg intraperitoneally once every 3 days",bone destruction was suppressed
same,proportion of α-SMA-positive mesenchymal stem cells (FIG. 5),[5],the proportion of α-SMA-positive mesenchymal stem cells was increased
